The source of these data is US8105994B2, “Personal wash cleanser comprising defined alkanoyl compounds, defined fatty acyl isethionate surfactant product and skin or hair benefit agent delivered in flocs upon dilution” (priority 2010, dated 2012).

Each structure is given as a SMILES string.

The test system of this series is skin, intrascapular area of the back. Put plainly: 14-day cumulative irritation Patch Test, cleansers diluted to 25% w/w in distilled water, occlusive patch. On the procedure:
This was randomized, double-blind study. A sufficient number of subjects were recruited to ensure that 25 subjects completed the study. The 14-day cumulative irritation test was conducted as follows. Patching occurred for 14 consecutive days, except on Sundays. Patches applied on Saturday were left in place until Monday, when freshly prepared patches were applied. The designated patch test sites were approximately 2 cm×2 cm on the intrascapular area of the back. Approximately 0.2 mL of the test product was placed onto a Parke-Davis Readi-Bandage® occlusive patch that measured 2 cm×2 cm. Solutions were made by diluting the cleansers to 25% w/w in distilled water. The patch was then applied to the designated test site. The patches were secured with hypoallergenic tape (Scanpor {Allerderm} as needed). A 0.5% sodium dodecyl sulfate (SDS) solution was used as the control in the test.
Each day following application, the patches were removed, the sites evaluated and identical patches reapplied to the same test sites. All evaluations were made using the following 6-point scoring system: • 0=No evidence of any effect • +=Barely perceptible (minimal, faint, uniform or spotty erythema) numerically equivalent to 0.5 • 1=Mild (pink, uniform erythema covering most of the contact site) • 2=Moderate (pink-red, erythema uniform in the entire contact site) • 3=Marked (bright red erythema with/without petechiae or papules) • 4=Severe (deep red erythema with/without vesiculation or weeping)
If a dermal reaction of 3 or 4 occur with any of the test articles at any point during the study, further patch testing on that subject was terminated at the test site involved, and the attained score was assigned to that site for the subsequent scheduled test days.
Cumulative irritation scores, which were the sum of the numerical irritation grades assigned daily during the 14-day test period, were calculated at the end of the study to compare mildness of the test products. […] The data were statistically analyzed using Tukey-Kramer Comparison, and statistical significance was determined at the 95% confidence level.

Consider `CCCCCCCCCCCCOS(=O)(=O)[O-].[Na+]` [0.5% SDS Solution, sodium dodecyl sulfate], for which the “Total irritation score compared to 0.5% SDS solution” value (Table 1, first patch test (Olay products)) is reported as 100% and the “Total irritation score compared to 0.5% SDS solution” value (Table 1, second patch test (Dove Deep Moisture)) is reported as 100%. Besides, the “Patch test Total irritation score” value reads like this: (Table 1, first patch test (Olay products; 0.5% SDS control 783)) 783; (Table 1, second patch test (Dove Deep Moisture; 0.5% SDS control 912)) 912.
